Measured values published in patent US11236302B2, “Methods and compositions for producing stem cell derived dopaminergic cells for use in treatment of neurodegenerative diseases” (BIOLAMINA AB, priority 2015, dated 2022).

Assays:
RC17 hESCs = experiment: Adherent differentiation of ventral mesencephalon progenitors on full-length laminin subtypes, day 0-11; format: cell-based, human; settings: for yield of neural cells relative to a standard yield of 100%: laminin as coating, day 0-11 of the protocol
Description: To develop a GMP-compatible differentiation protocol for high and reproducible yield of caudilised mesDA ventral mesencephalon progenitors that would result in good graft outcome, a fully GMP-derived hES cell line RC17 from Roslin cells (hPS Creg #RCe021-A) was used. Previous research grade ventral mesencephalon differentiation protocols have implemented steps of embryoid body (EB) formation or culturing on MATRIGEL®, both of which pose problems in GMP adaptation due to difficulties in reproducibility and the content of undefined animal-derived component, respectively.
Relative to a standard yield of 100%, LN-111 yielded 170%, LN-421 yielded 294%, LN-511 yielded 223%, and LN-521 yielded 208%. RC17 cells were differentiated according to the methods described herein, but on plates that were coated with laminin-121 instead of laminin-111. FIG. 8C compares the yields, and the yields are about equal to each other, i.e. LN-121 works about as well as LN-111 as a substrate.

undifferentiated hESCs = experiment: Plating of undifferentiated hESCs on laminin matrix in pluripotency medium or differentiation medium; format: cell-based, human; settings: laminin as matrix
Description: When the same number of cells was plated onto LN-111 in B27 medium, the cultures remained adherent and grew to confluency after 7 days of differentiation while showing rapid downregulation of pluripotency markers.

Row | Substance | yield of neural cells relative to a standard yield of 100% (RC17 hESCs) | support of growth of pluripotent stem cells versus neural cells (undifferentiated hESCs) | yield of dopaminergic cells on LN-121 compared with LN-111 (RC17 hESCs; RC17 cells, plates coated with laminin-121 instead of laminin-111)
1 | LN-111: the protein formed by joining α1, β1 and γ1 chains together | 170% | selectively supported the growth of neural cells but not pluripotent stem cells | –
2 | LN-121: the protein formed by joining α1, β2 and γ1 chains together | – | – | about equal
3 | LN-421: the protein formed by joining α4, β2 and γ1 chains together | 294% | – | –
4 | LN-511: the protein formed by joining α5, β1 and γ1 chains together | 223% | efficiently support growth of hPSCs | –
5 | LN-521: the protein formed by joining α5, β2 and γ1 chains together | 208% | efficiently support growth of hPSCs | –
